Data reported in PubChem BioAssay AID330 (DTP/NCI, 2004).
Where “and” joins values, the source holds several entries; their conditions need not be identical. Identical values can stand only once. Toxic doses and inconclusive results are not listed.

Tested on: P388 leukemia ip, CD2F1 mice, survival T/C
Test: NCI In Vivo Anticancer Drug Screen. Data for tumor model P388 Leukemia (intraperitoneal) in CD2F1 (CDF1) mice
Conditions: endpoint: median survival time, higher = longer survival
Outline: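 Mice carrying the transplanted tumor received test compound or vehicle. Survival was recorded in each group, and the value is the treated-group measurement divided by that of the vehicle-treated control group.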

[1] = dose: 50.0 mg/kg/injection, schedule: Q01DX005 (ip), vehicle: saline with Tween-80
[2] = dose: 100.0 mg/kg/injection, schedule: Q01DX005 (ip), vehicle: saline with Tween-80
[3] = dose: 200.0 mg/kg/injection, schedule: Q01DX005 (ip), vehicle: saline with Tween-80
[4] = dose: 60.0 mg/kg/injection, schedule: Q01DX005 (ip), vehicle: saline with Tween-80
[5] = dose: 120.0 mg/kg/injection, schedule: Q01DX005 (ip), vehicle: saline with Tween-80
[6] = dose: 240.0 mg/kg/injection, schedule: Q01DX005 (ip), vehicle: saline with Tween-80
[7] = dose: 60.0 mg/kg/injection, schedule: Q01DX005 (ip), vehicle: Klucel (hydroxypropylcellulose) (HPC)
[8] = dose: 120.0 mg/kg/injection, schedule: Q01DX005 (ip), vehicle: Klucel (hydroxypropylcellulose) (HPC)
[9] = dose: 240.0 mg/kg/injection, schedule: Q01DX005 (ip), vehicle: Klucel (hydroxypropylcellulose) (HPC)
[10] = dose: 100.0 mg/kg/injection, schedule: Q01DX009 (ip), vehicle: saline with Tween-80
[11] = dose: 200.0 mg/kg/injection, schedule: Q01DX009 (ip), vehicle: saline with Tween-80
[12] = dose: 100.0 mg/kg/injection, schedule: Q01DX001 (ip), vehicle: Klucel (hydroxypropylcellulose) (HPC)
[13] = dose: 12.5 mg/kg/injection, schedule: Q01DX005 (ip), vehicle: saline with Tween-80
[14] = dose: 50.0 mg/kg/injection, schedule: Q01DX005 (ip), vehicle: Klucel (hydroxypropylcellulose) (HPC)
[15] = dose: 100.0 mg/kg/injection, schedule: Q01DX005 (ip), vehicle: Klucel (hydroxypropylcellulose) (HPC)
[16] = dose: 200.0 mg/kg/injection, schedule: Q01DX005 (ip), vehicle: Klucel (hydroxypropylcellulose) (HPC)
[17] = dose: 50.0 mg/kg/injection, schedule: Q01DX009 (ip), vehicle: saline with Tween-80
[18] = dose: 50.0 mg/kg/injection, schedule: Q04DX002 (ip), vehicle: saline with Tween-80
[19] = dose: 100.0 mg/kg/injection, schedule: Q04DX002 (ip), vehicle: saline with Tween-80
[20] = dose: 50.0 mg/kg/injection, schedule: Q04DX003 (ip), vehicle: saline with Tween-80
[21] = dose: 100.0 mg/kg/injection, schedule: Q04DX003 (ip), vehicle: saline with Tween-80
[22] = dose: 200.0 mg/kg/injection, schedule: Q04DX003 (ip), vehicle: saline with Tween-80

With O=C1CC(=O)N(C2CCCCC2)C(=O)N1c1ccccc1S(=O)(=O)Oc1ccccc1 the T/C [1] was 103 % of control, the T/C [2] was 101 % of control and the T/C [3] was 103 % of control.

O=[N+]([O-])c1cn(CCCNc2c3ccccc3nc3ccccc23)cn1 was tested, and the T/C [4] was 95 % of control, the T/C [5] was 107 % of control and the T/C [6] was 112 % of control.

With CC(=O)[C-](I)C(C)=O.CC(=O)[C-](I)C(C)=O.CC(=O)[C-](I)C(C)=O.[Ru+3] the T/C [7] was 106 % of control, the T/C [8] was 106 % of control and the T/C [9] was 115 % of control.

For O=C(C=C(C(F)(F)F)C(F)(F)F)c1ccc([N+](=O)[O-])cc1, the T/C (dose: 3.13 mg/kg/injection, schedule: Q04DX003 (ip), vehicle: other) was 100 % of control, the T/C (dose: 6.25 mg/kg/injection, schedule: Q04DX003 (ip), vehicle: other) was 109 % of control and the T/C (dose: 12.5 mg/kg/injection, schedule: Q04DX003 (ip), vehicle: other) was 118 % of control.

With O=C(Nc1ccc(Cl)cc1)Nc1nnc(-c2cc([N+](=O)[O-])cc([N+](=O)[O-])c2)o1 the T/C [4] was 98 % of control, the T/C [5] was 92 % of control and the T/C [6] was 86 % of control.

With O=C(NC(CO)C(O)c1ccc(N=Nc2cccc3ccccc23)cc1)C(Cl)Cl (stereo not given) the T/C [10] was 95 % of control, the T/C [11] was 104 % of control and the T/C (dose: 400.0 mg/kg/injection, schedule: Q01DX009 (ip), vehicle: saline with Tween-80) was 104 % of control.

CC(=O)OCC1=C(COC(C)=O)C(=O)c2cc3ccccc3cc2C1=O was tested, and the T/C (dose: 25.0 mg/kg/injection, schedule: Q01DX001 (ip), vehicle: saline with Tween-80) was 92 % of control, the T/C (dose: 50.0 mg/kg/injection, schedule: Q01DX001 (ip), vehicle: saline with Tween-80) was 92 % of control and the T/C (dose: 100.0 mg/kg/injection, schedule: Q01DX001 (ip), vehicle: saline with Tween-80) was 94 % of control. The T/C (dose: 200.0 mg/kg/injection, schedule: Q01DX001 (ip), vehicle: saline with Tween-80) was 101 % of control.

With O/C(=C(\c1ccccc1)n1ncc2c1OCCC2)c1ccccc1 the T/C (dose: 50.0 mg/kg/injection, schedule: Q01DX001 (ip), vehicle: Klucel (hydroxypropylcellulose) (HPC)) was 94 % of control and the T/C [12] was 95 % of control.

For CCCCC(CC)CN1CN2CN(CC(CC)CCCC)CC2(C)C1 (stereo not given), the T/C [13] was 100 % of control, the T/C (dose: 25.0 mg/kg/injection, schedule: Q01DX005 (ip), vehicle: saline with Tween-80) was 105 % of control and the T/C [1] was 104 % of control and 105 % of control.

c1cnc2c(OCCOCCOCCOCCOc3cccc4cccnc34)cccc2c1 was tested, and the T/C [1] was 90 % of control, the T/C [2] was 90 % of control and the T/C [3] was 98 % of control.

CCC1(C(C)C)NC(=O)NC1=O (stereo not given) was tested, and the T/C [14] was 106 % of control, the T/C [15] was 104 % of control and the T/C [16] was 106 % of control.

O=C1CSC2(CCN(CCCN3c4ccccc4Sc4ccc(Cl)cc43)CC2)N1 was tested, and the T/C [17] was 98 % of control and the T/C [10] was 116 % of control.

Cc1cccc(C)c1NC(=O)C1C(=O)C(=O)N(c2c(C)cccc2C)C1=O (stereo not given) was tested, and the T/C (dose: 25.0 mg/kg/injection, schedule: Q04DX002 (ip), vehicle: saline with Tween-80) was 100 % of control, the T/C [18] was 101 % of control and the T/C [19] was 98 % of control and 100 % of control.

Cc1nc(Cl)c(C#N)nc1C was tested, and the T/C [17] was 100 % of control, the T/C [20] was 110 % of control and the T/C [10] was 100 % of control. For the same compound, the T/C [21] was 100 % of control, the T/C [11] was 100 % of control and the T/C [22] was 100 % of control.

CC(/C=N/NC(=O)C[n+]1ccccc1)=N/NC(=O)C[n+]1ccccc1 was tested, and the T/C (dose: 3.12 mg/kg/injection, schedule: Q01DX005 (ip), vehicle: saline) was 96 % of control and 98 % of control, the T/C (dose: 6.25 mg/kg/injection, schedule: Q01DX005 (ip), vehicle: saline) was 97 % of control and 98 % of control and the T/C (dose: 12.5 mg/kg/injection, schedule: Q01DX005 (ip), vehicle: saline) was 99 % of control and 97 % of control. For the same compound, the T/C (dose: 25.0 mg/kg/injection, schedule: Q01DX005 (ip), vehicle: saline) was 99 % of control and 101 % of control and the T/C [1] was 95 % of control.

For CC(=O)OCC1OC(n2cnc3c(Cl)nc(Cl)nc32)CC(OC(C)=O)C1OC(C)=O (stereo not given), the T/C [14] was 93 % of control, the T/C [15] was 99 % of control and the T/C [16] was 91 % of control.

COc1ccc(/C=C2\CCN=C2c2ccccc2)cc1OC was tested, and the T/C [14] was 101 % of control, the T/C [15] was 97 % of control and the T/C [16] was 96 % of control.

With O=C1Cc2nc3ccccc3nc2CC(=O)c2ccccc21 the T/C [18] was 90 % of control, the T/C [19] was 87 % of control and the T/C (dose: 200.0 mg/kg/injection, schedule: Q04DX002 (ip), vehicle: saline with Tween-80) was 90 % of control.

Nc1cccc(S(=O)(=O)Nc2c(N)nc(SCC(=O)O)[nH]c2=O)c1 was tested, and the T/C [7] was 100 % of control, the T/C [8] was 98 % of control and the T/C [9] was 98 % of control.

In the case of O=C(NCCCCCCCCCCNC(=O)N1CC1)N1CC1, the T/C (dose: 0.25 mg/kg/injection, schedule: Q04DX003 (ip), vehicle: saline with Tween-80) is reported as 104 % of control, the T/C (dose: 0.5 mg/kg/injection, schedule: Q04DX003 (ip), vehicle: saline with Tween-80) is reported as 108 % of control and the T/C (dose: 1.56 mg/kg/injection, schedule: Q01DX009 (ip), vehicle: saline with Tween-80) is reported as 165 % of control. The T/C (dose: 2.0 mg/kg/injection, schedule: Q04DX003 (ip), vehicle: saline with Tween-80) was 159 % of control, the T/C (dose: 3.0 mg/kg/injection, schedule: Q04DX003 (ip), vehicle: saline with Tween-80) was 209 % of control and the T/C (dose: 3.13 mg/kg/injection, schedule: Q04DX003 (ip), vehicle: saline with Tween-80) was 185 % of control. For the same compound, the T/C (dose: 4.5 mg/kg/injection, schedule: Q04DX003 (ip), vehicle: saline with Tween-80) was 204 % of control, the T/C (dose: 6.25 mg/kg/injection, schedule: Q01DX009 (ip), vehicle: saline with Tween-80) was 95 % of control and the T/C (dose: 6.25 mg/kg/injection, schedule: Q04DX003 (ip), vehicle: saline with Tween-80) was 150 % of control.

For ClCCN(CCCl)c1ccc(CCCCN2CCCCC2)cc1, the T/C (dose: 6.25 mg/kg/injection, schedule: Q01DX009 (ip), vehicle: Klucel (hydroxypropylcellulose) (HPC)) was 153 % of control and the T/C (dose: 12.5 mg/kg/injection, schedule: Q01DX009 (ip), vehicle: Klucel (hydroxypropylcellulose) (HPC)) was 183 % of control.

With O=C1OC(c2ccc(Cl)cc2)Sc2ccccc21 (stereo not given) the T/C (dose: 25.0 mg/kg/injection, schedule: Q04DX003 (ip), vehicle: saline with Tween-80) was 102 % of control, the T/C [20] was 93 % of control and the T/C [21] was 102 % of control. For the same compound, the T/C [22] was 100 % of control.

For CS(=O)(=O)OC1COCC1OS(C)(=O)=O (stereo not given), the T/C [12] was 95 % of control, the T/C (dose: 100.0 mg/kg/injection, schedule: Q04DX003 (ip), vehicle: Klucel (hydroxypropylcellulose) (HPC)) was 99 % of control and the T/C (dose: 200.0 mg/kg/injection, schedule: Q01DX001 (ip), vehicle: Klucel (hydroxypropylcellulose) (HPC)) was 95 % of control. For the same compound, the T/C (dose: 200.0 mg/kg/injection, schedule: Q04DX003 (ip), vehicle: Klucel (hydroxypropylcellulose) (HPC)) was 100 % of control, the T/C (dose: 400.0 mg/kg/injection, schedule: Q01DX001 (ip), vehicle: Klucel (hydroxypropylcellulose) (HPC)) was 100 % of control and the T/C (dose: 400.0 mg/kg/injection, schedule: Q04DX003 (ip), vehicle: Klucel (hydroxypropylcellulose) (HPC)) was 107 % of control.

With CC1(C)CC(=O)C2=C(C1)OC1=C(C(=O)CC(C)(C)C1)C2c1cccc([N+](=O)[O-])c1 the T/C (dose: 25.0 mg/kg/injection, schedule: Q01DX009 (ip), vehicle: saline with Tween-80) was 104 % of control and 95 % of control, the T/C [17] was 100 % of control and 93 % of control and the T/C [10] was 93 % of control and 94 % of control. The T/C [11] was 93 % of control and 95 % of control.

In the case of N=C(N)c1ccc(N=NNc2ccc(C(=N)N)cc2)cc1, the T/C (dose: 12.5 mg/kg/injection, schedule: Q01DX005 (ip), vehicle: Klucel + Tween-80) is reported as 94 % of control, the T/C [13] is reported as 96 % of control and the T/C (dose: 25.0 mg/kg/injection, schedule: Q01DX005 (ip), vehicle: Klucel + Tween-80) is reported as 98 % of control. For the same compound, the T/C (dose: 50.0 mg/kg/injection, schedule: Q01DX005 (ip), vehicle: Klucel + Tween-80) was 100 % of control.
